The values that follow come from patent US12503446B2, “Bromodomain inhibitors” (FORSCHUNGSZENTRUM JÜLICH GMBH, priority 2019, dated 2025).

Holding throughout (type): cell-based
Assay [1] has as its system erythroleukaemia cell line HEL (JAK2V617F-positive). The experiment in a line: MTT assay, metabolic activity of HEL cells. To be noted: 1 μM, 72 h, DMSO control set to 100%. Here is the method: (§1) All studies with the HEL, Molm-14 and K562 cell lines mentioned (sourced from DSMZ: ACC-11, ACC-10 and ACC-777) were conducted under germ-free conditions under a sterile hood. Incubation was effected at 37° C. in an incubator at a CO2 saturation of 5%. For the passage of the suspension cells, the cells were transferred in a Falcon prefilled with PBS (phosphate buffered saline) and centrifuged at 1200 rpm for 5 min. All three cell lines were cultured in RPMI-1640 medium (Gibco, Thermo Fischer Scientific, Darmstadt, Germany) with 10% FCS and 1% penicillin streptomycin.
(§2) The viability and metabolic activity of the cells were measured by the MTT assay. Yellow, water-soluble MTT (3-([…])-2,5-diphenyltetrazolium bromide) is a tetrazolium salt which is reduced to dark blue formazan in living cells. Insoluble formazan is released by addition of isopropanol-HCl, and its intensity can be determined by photometry at a wavelength of 550 nm. Thus, the proportion of living cells is measured by comparison with a particular control sample. The cells were counted and washed with PBS, and 30 000 cells per well were sown in triplicates in a 96-well plate. For the inhibitor treatment, the stated final concentrations were used. For this purpose, 10 µl of the appropriate inhibitor dilution was introduced into the 96-well plates, and then 90 μl of cell suspension was pipetted in. The plates were incubated in an incubator for 72 h (37° C., 5% CO2). After the incubation, 10 μl of MTT solution (5 mg/ml) was applied to the wells with a multichannel pipette and thoroughly resuspended. This was followed by incubation for 4 h in the dark at room temperature. Subsequently, the cells were resuspended in 100 μl of isopropanol-HCl and lysed, and absorption at a wavelength of 550 nm was measured by photometry with a plate reader (Kayto, RT-2100C).
(§3) The erythroleukaemia cell line HEL (JAK2V617F-positive), the AML cell line Molm-14 and the chronic myeloid leukaemia (CML) cell line K562 (BCR-ABL-positive) were used for cell experiments.
(§4) Compounds MF1-R, MF1-S, JHS1-R and JHS1-S were dissolved in DMSO, and each was used in concentrations of 0.1 μM, 1 μM, 10 μM and 20 μM. Correspondingly, DMSO was included in each case as a control treatment, and the metabolic activity thereof was set to 100%. The HEL, Molm-14 and K562 cell lines were treated with the respective compounds in the different concentrations and, after 72 h in culture, the metabolic activity, which gives information about the growth of the cells, was determined by means of MTT [3-(4,5-dimethylthiazol-2-yl)-2,5-diphenyltetrazolium bromide] assay.
A general note: Tetrazolium dyes change colour on reduction, which living cells bring about.

The subject of assay [2] is AML cell line Molm-14. Kind of assay: MTT assay, metabolic activity of Molm-14 cells. To be noted: 1 μM, 72 h, DMSO control set to 100%. Here is the method:
as §1, §2, §3, §4

Assay [3] relates to Molm-14 cells. The experiment in a line: Cell cycle analysis (propidium iodide, flow cytometry), Molm-14. To be noted: compared to PFI-1. As for the experimental part: (§5) The influence of the inhibitors used on the cell cycle was examined by means of propidium iodide staining of the fixed cells. For this purpose, the cells were fixed with 95% ethanol at −20° C., RNA was destroyed by RNase (100 μg/ml) at 37° C. for […], and the DNA was stained by means of propidium iodide (50 μg/ml). Using a flow cytometer (Gallios (Beckman Coulter, Krefeld, Germany)), the cell cycle phases were analysed, and the data were evaluated by means of FlowJo Software (Version 10).
(§6) During the proliferation, the cells go through different stages of the cell cycle in which genomic DNA is replicated, the cell nucleus is broken down and cell division takes place, resulting in two identical cells.
(In general: A flow cytometer gives signals particle by particle.)

For assay [4], the system named is PARP1 cleavage in HEL cells. The experiment in a line: PARP1 cleavage Western blot (apoptosis), HEL. As to conditions: 5 μM. As for the experimental part:
Cell lysates were produced with RIPA lysis buffer (50 mM Tris pH 7.4, 150 mM sodium chloride, 1 mM EDTA, 1% Triton-X, 15% glycerol, 0.5% sodium deoxycholate, and protease/phosphatase inhibitors). Protein concentrations were determined by the Bradford Protein Assay using a Nanodrop Spectrometer (NanoDrop 2000/2000c system, Thermo Fisher Scientific, Darmstadt, Germany) at 595 nm. To 25 μg of protein lysates was added 4xLämmli sample buffer, followed by denaturing at 65° C. for 5 min and introduction into the SDS-Page. The proteins were transferred by the wet blot method in Towbin buffer (3 g Tris, 14.4 g glycine, 5% methanol per litre of ddH2O) to a PVDF membrane at 100 mA overnight. The membrane was blocked with 10% BSA in TBS-T buffer (20 mM Tris-HCl, pH 7.6, 137 mM NaCl, 0.05% IGEPAL). The primary antibodies were incubated at 4° C. overnight, and the HRP-labelled antibodies at room temperature with the membrane for […]. The proteins were detected by means of PCA-ECL solution using a chemiluminescence detector (Fusion SL, PeqLab).
In addition, a possible induction of apoptosis in the cell lines described by compound MF2 was examined. […] Protein concentrations were determined with the Bradford protein assay using a Nanodrop Spectrometer at 595 nm. […] The proteins were detected by means of PCA-ECL solution using a chemiluminescence detector (Fusion SL, PeqLab). […]
(Immunoblotting shows a protein as a band on a membrane.)

For assay [5], the system named is HEL cells. Kind of assay: Cell cycle analysis (propidium iodide, flow cytometry), HEL. To be noted: compared to PFI-1. Here is the method:
as §5, §6

Assay [6] deals with Molm-14 cells. The experiment in a line: Proliferation assay, cell count after trypan blue staining, Molm-14. As to conditions: 1 or 5 μM, 24-72 h, by comparison with PFI-1. Here is the method: (§7) Cell count and viability was determined after trypan blue staining. The appropriate concentrations of the inhibitors per ml of medium were added, or the correspondingly highest volume of DMSO was added as control group.
The cell growth described here is referred to as proliferation, and gives information as to the cell divisions that proceeded in the specified period.

The subject of assay [7] is Molm-14 cells. Kind of assay: Viability from trypan blue staining, Molm-14. As to conditions: 5 μM, compared to PFI-1. As for the experimental part: as §7
During the study of cell proliferation, the viability of the cell lines was likewise determined from the trypan blue staining. Trypan blue cannot penetrate into living cells.

For the compound `CN1Cc2cc(N=[S@@](C)(=O)c3ccccc3)ccc2NC1=O` [MF2-S, (S)—N-(3-methyl-2-oxo-1,2,3,4-tetrahydroquinazolin-6-yl)-S-methyl-S-phenylsulfoximine], the “metabolic activity of HEL cells” value in assay [1] is listed as 37.24%±6.19. Moreover, in assay [2], the “metabolic activity of Molm-14 cells” value was 55.19%±0.72. For the same compound, in assay [3], the “subG1 phase (percentage of dead cells), Molm-14” value is on record as “significantly higher proportions” and the “synthesis phase (S phase) of cell cycle, Molm-14” value is “more significantly inhibited by MF2-S than by PFI-1”. Also, the “band for the PARP1 cleavage product, HEL” value in assay [4] (48 h, compared to PFI-1) was “more marked in HEL cells than in the case of PFI-1 treatment”. Further, the “induction of apoptosis, HEL” value in assay [4] (compared to MF2, MF2-R, PFI-1) is on record as “induced apoptosis more strongly than the other compounds examined”. In addition, in assay [5], the “subG1 phase (percentage of dead cells), HEL” value is recorded as “significantly higher proportions” and the “synthesis phase (S phase) of cell cycle, HEL” value was “more significantly inhibited by MF2-S than by PFI-1”. Moreover, the “cell proliferation (cell count) of Molm-14” value in assay [6] is “significantly reduced the cell proliferation”. In assay [7], the “viability of Molm-14 cells” value is recorded as “significantly reduced the viability”.
